The assay addresses human RIP1 kinase domain (2-375) (Homo sapiens (Human), UniProt Q13546). As to the kind of experiment: biochemical. Format: biochemical. The essentials: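 50 nM purified kinase domain from baculovirus-infected insect cells, incubated 2 h with compound in 50 mM Hepes pH 7.5, 30 mM MgCl2, 1 mM DTT, 50 uM ATP, 0.002% Brij-35, 0.5% DMSO. ADP formation read by Transcreener FP at 633 nm excitation. Ki^app fitted with the Morrison tight-binding equation.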

Where [1] appears, read: human RIP1 kinase domain (2-375), Transcreener ADP assay, 50 uM ATP, 2 hours incubation, read-out: RIP1 Ki.
The mark [2] stands for this setting: tight-binding apparent inhibition constant, human RIP1 kinase domain (2-375) 50 nM, 50 uM ATP, 2 hours, read-out: Ki.
Setting [3] is: human RIP1 kinase domain (2-375), 50 uM ATP, 2 hours incubation, Transcreener ADP assay, read-out: RIP1 Ki.
The mark [4] stands for this setting: Table 3, apparent Ki (Morrison tight-binding fit), 50 nM RIP1 kinase domain, 50 uM ATP, 2 hours incubation, read-out: Ki.
[5] abbreviates: Table 1, apparent Ki (Morrison tight-binding fit), 50 nM RIP1 kinase domain, 50 uM ATP, 2 hours incubation, read-out: RIP1 Ki.

Read-outs that look alike come from different tables or passages of the source.

Results on 22 molecules are retold here after US10988459B2 (priority 2015, dated 2021).

Chain of human RIP1 kinase domain (2-375) (Q13546 2-375): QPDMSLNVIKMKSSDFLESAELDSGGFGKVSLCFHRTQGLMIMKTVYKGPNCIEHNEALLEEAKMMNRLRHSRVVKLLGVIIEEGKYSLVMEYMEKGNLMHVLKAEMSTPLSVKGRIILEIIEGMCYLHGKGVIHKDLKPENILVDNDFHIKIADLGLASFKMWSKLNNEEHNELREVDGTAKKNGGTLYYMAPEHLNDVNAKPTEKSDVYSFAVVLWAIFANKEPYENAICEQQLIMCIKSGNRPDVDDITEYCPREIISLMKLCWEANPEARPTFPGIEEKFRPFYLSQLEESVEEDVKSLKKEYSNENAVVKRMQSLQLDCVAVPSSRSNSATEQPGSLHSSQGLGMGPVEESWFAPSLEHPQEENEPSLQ

Regarding `Cc1cc2n(n1)CC[C@H](NC(=O)c1nnc(Cc3ccccc3)[nH]1)C(=O)N2C` [Example 240, (S)-5-benzyl-N-(2,4-dimethyl-5-oxo-5,6,7,8-tetrahydro-4H-pyrazolo[1,5-a][1,3]diazepin-6-yl)-4H-1,2,4-triazole-3-carboxamide], under setting [1], the Ki is 84.6 nM.
Regarding `Cc1cc(F)c2c(c1)OC[C@H](NC(=O)c1nc3n(n1)[C@H](C(C)C)CC3)C(=O)N2` (single isomer, unassigned) [Example 352], the Ki under setting [2] was 96.9 nM.
Take `CN1C(=O)[C@@H](NC(=O)c2ncc3cnn(-c4ccccn4)c3n2)COc2ccccc21` [Example 631, 1-(2-pyridyl)-N-[(3S)-5-methyl-4-oxo-2,3-dihydro-1,5-benzoxazepin-3-yl]pyrazolo[3,4-d]pyrimidine-6-carboxamide]: the Ki under setting [2] came out at 160 nM.
For the molecule `CN1C(=O)C(NC(=O)c2ncn(Cc3ccccc3)n2)CCn2nc(CN3CCOCC3)cc21` (stereo not shown) [Example 443, 1-benzyl-N-(4-methyl-2-(morpholinomethyl)-5-oxo-5,6,7,8-tetrahydro-4H-pyrazolo[1,5-a][1,3]diazepin-6-yl)-1H-1,2,4-triazole-3-carboxamide], under setting [2], the Ki was found to be 299 nM.
For `CN1C(=O)C(NC(=O)c2n[nH]c(Cc3ccccc3)n2)CCn2nc(-c3ccccc3)cc21` (stereo not shown) [Example 209, 5-benzyl-N-(4-methyl-5-oxo-2-phenyl-5,6,7,8-tetrahydro-4H-pyrazolo[1,5-a][1,3]diazepin-6-yl)-1H-1,2,4-triazole-3-carboxamide], under setting [3], the Ki is 75.6 nM.
Turning to `CN1C(=O)[C@@H](NC(=O)c2n[nH]c3ccc(Cl)cc23)COc2ccccc21` [Example 338, (S)-5-chloro-N-(5-methyl-4-oxo-2,3,4,5-tetrahydrobenzo[b][1,4]oxazepin-3-yl)-1H-indazole-3-carboxamide], the Ki under setting [4] stood at 21 nM.
Regarding `CN1C(=O)C(NC(=O)c2ncn(Cc3ccccc3)n2)CCn2c1nc1ccccc12` (stereo not shown) [Example 111, 1-benzyl-N-(1-methyl-2-oxo-2,3,4,5-tetrahydro-1H-benzo[4,5]imidazo[1,2-a][1,3]diazepin-3-yl)-1H-1,2,4-triazole-3-carboxamide], under setting [3], the Ki is 126 nM.
In the case of `CN1C(=O)[C@@H](NC(=O)c2n[nH]c3c2CC(C(F)(F)F)CC3)COc2ccccc21` (stereo partly drawn) [Example 34, N-((S)-5-methyl-4-oxo-2,3,4,5-tetrahydrobenzo[b][1,4]oxazepin-3-yl)-5-(trifluoromethyl)-4,5,6,7-tetrahydro-1H-indazole-3-carboxamide], the Ki under setting [5] came out at 7.68 nM.
For the molecule `CN1C(=O)C(NC(=O)c2ncn(Cc3ccccc3)n2)CCCn2nc(C3CC3)cc21` (stereo not shown) [Example 104, 1-benzyl-N-(2-cyclopropyl-4-methyl-5-oxo-4,5,6,7,8,9-hexahydropyrazolo[1,5-a][1,3]diazocin-6-yl)-1H-1,2,4-triazole-3-carboxamide], the Ki under setting [3] is 149 nM.
Consider `CN1C(=O)[C@H](NC(=O)c2ncn(Cc3ccccc3)n2)CCn2nc(C3CC3(F)F)cc21` (stereo partly drawn) [Example 284, 1-benzyl-N-((6R)-2-(2,2-difluorocyclopropyl)-4-methyl-5-oxo-5,6,7,8-tetrahydro-4H-pyrazolo[1,5-a][1,3]diazepin-6-yl)-1H-1,2,4-triazole-3-carboxamide], for which the Ki under setting [1] amounted to 86.4 nM.
Regarding `CN1C(=O)[C@@H](NC(=O)c2nc3cccc(-c4cnn(C)c4)n3n2)CCn2nccc21` [Example 393, (S)-5-(1-methyl-1H-pyrazol-4-yl)-N-(4-methyl-5-oxo-5,6,7,8-tetrahydro-4H-pyrazol-[1,5-a][1,3]diazepin-6-yl)-[1,2,4]triazolo[1,5-a]pyridine-2-carboxamide], the Ki under setting [2] is 463 nM.
As to `Cc1cc2n(n1)CC[C@H](NC(=O)c1ncn([C@@H](C)c3ccccc3)n1)C(=O)N2C` [Example 165, N-((S)-2,4-dimethyl-5-oxo-5,6,7,8-tetrahydro-4H-pyrazolo[1,5-a][1,3]diazepin-6-yl)-1-((S)-1-phenylethyl)-1H-1,2,4-triazole-3-carboxamide], the Ki under setting [3] was determined as 47.4 nM.
As to `CN1C(=O)[C@@H](NC(=O)c2n[nH]c3c2CC(C)(C)CC3)COc2ccccc21` [Example 18, 5,5-dimethyl-N-[(3S)-5-methyl-4-oxo-2,3-dihydro-1,5-benzoxazepin-3-yl]-1,4,6,7-tetrahydroindazole-3-carboxamide], the Ki (read-out: RIP1 Ki) was 415 nM.
For `Cc1cc2n(n1)CC[C@H](NC(=O)c1ncn(CC3(C)CCCC3)n1)C(=O)N2C` [Example 495, 1-[(1-methylcyclopentyl)methyl]-N-(6S)-2,4-dimethyl-5-oxo-7,8-dihydro-6H-pyrazolo[1,5-a][1,3]diazepin-6-yl-1,2,4-triazole-3-carboxamide], the Ki under setting [2] is 130 nM.
With `CN1C(=O)[C@@H](NC(=O)c2ncn(Cc3ccc(F)cc3F)n2)CCn2nc(C3CC3)cc21` [Example 224, (S)—N-(2-cyclopropyl-4-methyl-5-oxo-5,6,7,8-tetrahydro-4H-pyrazolo[1,5-a][1,3]diazepin-6-yl)-1-(2,4-difluorobenzyl)-1H-1,2,4-triazole-3-carboxamide], the Ki under setting [3] was 21.9 nM.
Take `CN1C(=O)[C@@H](NC(=O)c2ncc3c(n2)[C@@]2(CCCOC2)OC3)COc2ccccc21` (racemic) [Example 692, rac-(7R)-N-[rac-(3S)-5-methyl-4-oxo-2,3-dihydro-1,5-benzoxazepin-3-yl]spiro[5H-furo[3,4-d]pyrimidine-7,3′-tetrahydropyran]-2-carboxamide]: under setting [2], the Ki was found to be 113 nM.
In the case of `Cc1cc2n(n1)CCC(NC(=O)c1ncn(Cc3ccccc3)n1)C(=O)N2C` (stereo not shown) [Example 333, 1-benzyl-N-(2,4-dimethyl-5-oxo-5,6,7,8-tetrahydro-4H-pyrazolo[1,5-a][1,3]diazepin-6-yl)-1H-1,2,4-triazole-3-carboxamide], the Ki under setting [4] stood at 68 nM.
`CN1C(=O)[C@@H](NC(=O)c2ncc3c(n2)C(C)(C)S(=O)(=O)C3)COc2ccccc21` [Example 556, 7,7-dimethyl-6,6-dioxo-N-[(3S)-5-methyl-4-oxo-2,3-dihydro-1,5-benzoxazepin-3-yl]-5H-thieno[3,4-d]pyrimidine-2-carboxamide]: under setting [2], the Ki came to 2700 nM.
As for `CC1(C)CCc2c(C(=O)N[C@H]3CCc4cc(Cl)ccc4NC3=O)n[nH]c2C1` [Example 53, (S)-N-(7-chloro-2-oxo-2,3,4,5-tetrahydro-1H-benzo[b]azepin-3-yl)-6,6-dimethyl-4,5,6,7-tetrahydro-1H-indazole-3-carboxamide], the Ki under setting [5] stood at 4500 nM.
In the case of `Cc1cc2n(n1)CC[C@H](NC(=O)c1nc3n(n1)[C@H](c1ccccc1F)CC3)C(=O)N2C` [Example 667, (5S)-5-(2-fluorophenyl)-N-[(6S)-2,4-dimethyl-5-oxo-7,8-dihydro-6H-pyrazolo[1,5-a][1,3]diazepin-6-yl]-6,7-dihydro-5H-pyrrolo[1,2-b][1,2,4]triazole-2-carboxamide], under setting [2], the Ki was 530 nM.
Regarding `CN1C(=O)[C@@H](NC(=O)c2nc3cccc(-c4ccoc4)n3n2)CCn2nccc21` [Example 389, (S)-5-(furan-3-yl)-N-(4-methyl-5-oxo-5,6,7,8-tetrahydro-4H-pyrazolo[1,5-a][1,3]diazepin-6-yl)-[1,2,4]triazolo[1,5-a]pyridine-2-carboxamide], under setting [2], the Ki was 173 nM.
`CN1C(=O)[C@@H](NC(=O)c2n[nH]c3ccc(Cl)nc23)COc2ccccc21` [Example 143, 5-chloro-N-[(3S)-5-methyl-4-oxo-2,3-dihydro-1,5-benzoxazepin-3-yl]-1H-pyrazolo[4,3-b]pyridine-3-carboxamide]: the Ki under setting [3] stood at 51.5 nM.
